# In patent US20240358017A1, “SPIDER WEB ERADICATION AND SPIDER REPELLANT COMPOUND AND METHODS OF USE” (DALRAY, LLC., priority 2023, published 2024):
# Tested on: spider web
# Experiment: web eradication / degradation of spider webs by the formulations
# Set-up: species or system spiders
# Details: comparison among the presented formulations; research by the inventors to-date
# From the text: As to the organic acid components of the above formulations, the chemical reaction for web degradation is exemplified by the following: As mentioned, the pH of compositions within the present invention(s) is an important feature of efficacy. […] As compositions of the present invention(s) are fabricated, the constituencies should be adjusted, as needed, to achieve end products of such acidity. Use of the formulations of the present invention is straight forward. In the simplest form, the solutions can be applied by a simple hand-pump garden sprayer. More pressurized, long-reach delivery may be achieved through various motorized pump systems as are readily available in the marketplace. After observed degradation of the target webs, the resulting “clumps” of digested webs may be simply rinsed from any surface with water.
substance,measurement,value
Lauramidopropyl Betaine,efficacy of web eradication (web degradation),effectively equivalent performance as Cocamipropyl Betaine
